The values that follow are results of earlier work, collected in patent US6362183B1, “Aromatic sulfonyl alpha-hydroxy hydroxamic acid compounds” (G. D. Searle & Company, priority 1997, dated 2002).

In the data set the test system is advanced, rapidly progressive, treatment-refractory solid tumor cancers. The settings on record: patients with colorectal, pancreatic, ovarian, prostate cancers; cited from earlier work.

As for `CNC(=O)[C@@H](NC(=O)[C@H](CC(C)C)[C@H](O)C(=O)NO)C(C)(C)C` [marimastat], the “effect on cancer-specific antigens used as surrogate markers for biological activity” value is “dose-related reduction in the rise of cancer-specific antigens”.
